The text below walks through data of publication PMC9553116 (The Journal of Pharmacology and Experimental Therapeutics, 2022).

In the assay the target is T1, MFN2 (FRET-MFN2) (Homo sapiens, UniProt O95140).
T1 sequence (O95140 1-757): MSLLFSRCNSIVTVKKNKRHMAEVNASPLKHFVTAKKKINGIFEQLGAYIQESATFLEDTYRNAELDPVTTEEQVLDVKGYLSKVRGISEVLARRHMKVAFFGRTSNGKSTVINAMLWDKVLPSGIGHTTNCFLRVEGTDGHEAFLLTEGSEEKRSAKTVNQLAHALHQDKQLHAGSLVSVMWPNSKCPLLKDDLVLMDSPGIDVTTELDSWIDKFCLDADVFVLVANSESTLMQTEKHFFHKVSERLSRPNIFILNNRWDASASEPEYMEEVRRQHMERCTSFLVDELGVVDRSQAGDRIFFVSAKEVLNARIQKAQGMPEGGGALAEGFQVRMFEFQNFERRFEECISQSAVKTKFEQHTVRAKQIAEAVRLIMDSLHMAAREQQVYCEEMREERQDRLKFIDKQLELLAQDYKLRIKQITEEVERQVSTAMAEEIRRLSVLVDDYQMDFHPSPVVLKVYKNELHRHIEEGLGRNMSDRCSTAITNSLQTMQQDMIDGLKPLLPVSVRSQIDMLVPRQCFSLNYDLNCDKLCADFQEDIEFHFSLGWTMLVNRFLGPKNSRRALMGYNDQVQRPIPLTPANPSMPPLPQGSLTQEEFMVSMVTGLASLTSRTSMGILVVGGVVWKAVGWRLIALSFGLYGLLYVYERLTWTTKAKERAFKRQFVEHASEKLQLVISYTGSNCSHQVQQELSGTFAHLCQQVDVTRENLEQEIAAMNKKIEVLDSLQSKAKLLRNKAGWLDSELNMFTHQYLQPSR
Briefly: Cerulean/Venus FRET of MFN2 conformation, isolated mitochondria. It is filed as biochemical. As to conditions: 1 uM compound, 4 h, room temperature, pH 7.4; allosteric.

Take `O=C(CCCCCc1ccccc1)N[C@H]1CC[C@H](O)CC1` [trans-MiM111, N-(trans-4-Hydroxycyclohexyl)-6-phenylhexanamide]: the FRET result was “trans-MiM111 and CPR1-B promoted a relaxed WT MFN2 conformation”.
